Read-outs that look alike come from different tables or passages of the source.
Experiments:
NIH/3T3 fibroblasts = test: Cytotoxicity on mammalian cells (sulphorhodamine B); type: cell-based; details: for NIH/3T3 Cells GL50: 48 h, concentration that inhibited cell growth by 50%
Method: The cytotoxic effect of the test samples was evaluated on NIH/3T3 fibroblasts, obtained from the Rio de Janeiro Cell Bank (Brazil). Cells were seeded in 96-well plates ([…]). After 24 h of fixation, cells were incubated for 48 h with test samples at 0.25–250 µg/mL, in triplicate. […] Doxorubicin (0.025–25 µg/mL was used as a positive control. Cells were fixed by adding 20% trichloroacetic acid and were subsequently stained with sulphorhodamine B (0.1%) diluted in acetic acid after 48 h of exposure. Absorbance values were read on the PT-READER microplate instrument (Thermoplate®), and growth percentages were calculated according to procedures in the literature. Cytotoxicity activity was expressed as the concentration of drug that inhibited cell growth by 50% (GL50), and growth was determined by nonlinear regression using Origin 6.0 software (OriginLab). The statistical significance was analysed using an unpaired Student’s t-test or a one-way analysis of variance. A p-value < 0.05 was considered statistically relevant. In addition, the SI was calculated using the ratio between cytotoxicity in NHI-3T3 cells (GL50) and activity in the parasite forms (IC50).

[1] = test system: Promastigote forms of L. amazonensis; test: Antipromastigote assay (MTT); type: cell-based, Leishmania amazonensis; details: for IC50: Leishmania amazonensis, 72 h, read-out: Promastigote IC50; for SI (selectivity index): GL50 in NIH/3T3 cells / IC50 in extracellular promastigotes
Method: A standard strain of Leishmania (Leishmania amazonensis) (IFLA/BR/1967/PH8) was used for the evaluation of in vitro antileishmanial activity. The promastigote forms were grown in Schneider’s insect medium (Sigma-Aldrich®, SP/Brazil) supplemented with 20% foetal bovine serum (Sigma-Aldrich®, SP/Brazil), 10,000 U/mL penicillin, and 10 mg/mL streptomycin (Sigma-Aldrich®, SP/Brazil).
Promastigote forms of L. amazonensis in the log growth phase (10^e6 parasites/mL) were added to 96-well plates and incubated in sextuplicate with the test samples (0.25–10.0 µg/mL). The microplates were incubated at 26 °C for 72 h. Cell viability was assessed by adding 5 mg/mL of MTT ([3-(4,5-dimethylthiazol-2-yl)-2,5-diphenyltetrazolium bromide] (Sigma-Aldrich® SP/Brazil). Results were expressed as the half-maximal inhibitory concentration (IC50) calculated by a nonlinear dose–response regression curve using the statistical program GraphPad PRISM 5.0. Pentamidine (Sigma-Aldrich ® SP/Brazil; 0.25–10 µg/mL) was used as a positive control, and pure Schneider culture medium was used as a negative control.

rCPB2.8 [2] = target: T1, rCPB2.8 (Leishmania mexicana, UniProt P36400); test: Determination of IC50 on rCPB2.8 (Z-FR-AMC); type: biochemical
T1 construct: recombinant enzymes (r) lacking the C-terminal region
Method: Cysteine proteases rCPB2.8, rCPB3, and rH84Y were assayed in 100 mM sodium acetate buffer containing 5 mM EDTA, 100 mM NaCl, 0.01% Triton X-100, and 20% glycerol, at pH 5.5. The enzymes were pre-incubated in the presence of 5 mM DTT for 5 min at 37 °C in a 1 mL final volume with constant stirring. Enzyme activities were monitored using fluorogenic probe Z-FR-AMC (9.25 µM final concentration), and the fluorescence was monitored by spectrofluorometry using fluorometer F2700 (Hitachi, Tokyo, Japan) set to λEx = 360 nm and λEm = 480 nm. The IC50 evaluation was performed using a progressive increase in the concentration of the compounds; the IC50 values were calculated using nonlinear regression, and the data were analysed by Grafit 5.0.13 software using Equation (1). (1) y=100%/1+(x/IC50)^S.

rCPB2.8 [3] = target: T1, rCPB2.8; test: Screening of inhibitory activity on rCPB2.8 (Z-FR-MCA hydrolysis); type: biochemical; details: for inhibition at 1 µM / inhibition at 5 µM: read-out: Inhibition of rCPB2.8 enzymatic activity
Method: The screening assays for the inhibitory activity of the compounds in the rCPB2.8, rCPB3, and rH84Y enzymes were performed using 100 mM sodium acetate buffer containing 5 mM EDTA, 100 mM NaCl, 0.01% Triton X-100, and 20% glycerol, at pH 5.5. Enzyme aliquots were pre-incubated with 5 mM DTT for 5 min at 37 °C. After checking the initial rate of the reaction corresponding to the control, the enzymatic rate was measured at two concentrations of compounds, 1 µM and 5 µM. Enzyme activity was monitored by hydrolysis of the substrate Z-FR-MCA by measuring the fluorescence at λEx = 360 nm and λEm = 480 nm on a Hitachi F2700 spectrofluorometer, obtaining the rate values in UAF/min (arbitrary fluorescence units by minute).

rCPB2.8 [4] = target: T1, rCPB2.8; test: Enzyme kinetics and mechanism of inhibition of rCPB2.8; type: biochemical; details: for α: factor of formation of the ESI complex; for β: factor of formation of the IEI complex; for γ: factor of formation of the IESI complex; on mechanism: key: NCPC: non-competitive inhibition with positive cooperativity; SLNC: simple linear non-competitive inhibition
Method: (§1) Studies of cysteine proteases rCPB2.8, rCPB3, and rH84Y inhibition kinetics were performed in different concentrations of Z-FR-AMC in the presence and absence of compounds using 100 mM sodium acetate buffer containing 5 mM EDTA, 100 mM NaCl, 0.01% Triton X-100, and 20% glycerol, at pH 5.5. Aliquots of the enzymes were pre-incubated with 5 mM DTT for 5 min at 37 °C. For every kinetic measurement, the compounds were pre-incubated with each enzyme for 10 min before adding the substrate. All kinetic assays were performed in duplicate. Inhibition constants were determined using different equations, depending on the inhibition mechanism. The assumed KM values of rCPB2.8, rCPB3, and rH84Y for Z-FR-AMC were 3.23 µM, 2.99 µM, and 2.80 µM, respectively. The data of the activity rate and substrate concentration generated rectangular hyperbolic profiles that were linearised using the Lineweaver–Burk double-reciprocal plot. The replot profiles of the slope vs. inhibitor and intercept vs. inhibitor provided Ki and αKi parameters, respectively. If the replots present a parabolic profile, the system involves the participation of a second molecule of the compound, which can bind the enzyme complexed to the first compound (EI), forming IEI, and bind to the ESI complex, forming IESI. Linearisation is required, generating the 1/Kslope vs. inhibitor and 1/Kintercept vs. inhibitor replots, according to Equations (2) and (3). (2) 1/Kslope=1/Ki+[I]/βKi2, (3) 1/Kintercept=1/αKi+[I]/αγKi2, where Ki is the inhibitory constant, [I] is the concentration of inhibitor, α is the factor of formation of the ESI complex (enzyme–substrate–inhibitor complex), β is the factor of formation of the IEI complex (inhibitor–enzyme–inhibitor complex), and γ is the factor of formation of the IESI complex (inhibitor–enzyme–substrate–inhibitor complex) according to the general mechanism (Figure 8). Furthermore, β and γ measure the cooperativity between the binding of the first and second inhibitor molecules to form IEI and IESI, respectively.

rCPB3 = rCPB3 (Leishmania mexicana, UniProt P36400, D186N/D189S/N185D, form not given); test: Enzyme kinetics and mechanism of inhibition of rCPB3; type: biochemical; details: for α: factor of formation of the ESI complex; on mechanism: key: NCPC: non-competitive inhibition with positive cooperativity; SLNC: simple linear non-competitive inhibition
Method: as §1

rH84Y [5] = target: rH84Y (Leishmania mexicana, UniProt P36400, D186N/D189S/H209Y/N185D, form not given); test: Enzyme kinetics and mechanism of inhibition of rH84Y; type: biochemical; details: for α: factor of formation of the ESI complex; on mechanism: key: NCPC: non-competitive inhibition with positive cooperativity; SLNC: simple linear non-competitive inhibition
Method: as §1

rH84Y [6] = type: biochemical, Leishmania mexicana; details: ratio of IC50 values
[7] = L. amazonensis promastigotes, 26 °C, MTT, highest concentration tested 10 µg/mL
[8] = factor of formation of the IEI complex
[9] = factor of formation of the IESI complex

Sequence of rCPB3 (P36400 126-343 D186N/D189S/N185D): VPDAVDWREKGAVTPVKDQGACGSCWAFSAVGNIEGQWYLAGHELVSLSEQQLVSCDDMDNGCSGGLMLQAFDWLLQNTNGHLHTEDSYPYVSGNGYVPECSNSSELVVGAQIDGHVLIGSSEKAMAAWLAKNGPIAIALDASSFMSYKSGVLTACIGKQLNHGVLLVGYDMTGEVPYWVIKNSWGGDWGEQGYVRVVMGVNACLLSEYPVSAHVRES
Sequence of rH84Y (Leishmania mexicana, UniProt P36400, D186N/D189S/H209Y/N185D, form not given) (P36400 126-343 D186N/D189S/H209Y/N185D): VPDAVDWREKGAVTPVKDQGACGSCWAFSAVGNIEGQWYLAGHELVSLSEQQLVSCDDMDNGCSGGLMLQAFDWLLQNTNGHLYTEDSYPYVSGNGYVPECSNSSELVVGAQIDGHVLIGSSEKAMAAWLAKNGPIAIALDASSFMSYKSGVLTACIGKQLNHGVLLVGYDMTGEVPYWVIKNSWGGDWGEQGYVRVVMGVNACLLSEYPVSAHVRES
T1 sequence (P36400 126-343): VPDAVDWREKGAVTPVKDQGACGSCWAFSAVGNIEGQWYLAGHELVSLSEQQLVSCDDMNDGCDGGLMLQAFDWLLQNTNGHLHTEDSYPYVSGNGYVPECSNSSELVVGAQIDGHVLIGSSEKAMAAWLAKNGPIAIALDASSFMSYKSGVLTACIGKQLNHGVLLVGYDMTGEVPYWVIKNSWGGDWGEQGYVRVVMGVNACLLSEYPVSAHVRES

COc1ccc(/C=C/C(=O)c2ccc(Cl)cc2)cc1 [Compound 1a, (E)-1-(4-chlorophenyl)-3-(4-methoxyphenyl)prop-2-en-1-one]
NIH/3T3 Cells GL50 (NIH/3T3 fibroblasts): 294.13 µM | IC50 [1]: > 10 µg/mL | IC50 (rCPB2.8 [2]): 13.7 ± 0.74 µM | inhibition at 1 µM (rCPB2.8 [3]): 82%

CN(C)c1ccc(/C=C/C(=O)c2ccc(Cl)cc2)cc1 [Compound 1c, (E)-1-(4-chlorophenyl)-3-(4-(dimethylamino)phenyl)prop-2-en-1-one]
NIH/3T3 Cells GL50 (NIH/3T3 fibroblasts): >874.83 µM | SI (selectivity index) [1]: >767.39 | IC50 [1, 7]: 1.14 µM | IC50 (rCPB2.8 [2]): 2.75 ± 0.18 µM | inhibition at 5 µM (rCPB2.8 [3]): 91.6%

CN(C)c1ccc(/C=C/C(=O)c2ccccc2O)cc1 [Compound 2c, (E)-3-(4-(dimethylamino)phenyl)-1-(2-hydroxyphenyl)prop-2-en-1-one]
NIH/3T3 Cells GL50 (NIH/3T3 fibroblasts): >935.21 µM | IC50 [1]: > 10 µg/mL | IC50 (rCPB2.8 [2]): 11.7 ± 0.38 µM | rCPB2.8 activity (increased to) (rCPB2.8 [3]; 1 µM compound, activity relative to control): 141.71% | inhibition at 5 µM (rCPB2.8 [3]): 25.6%

CN(C)c1ccc(/C=C/C(=O)c2cc(Cl)ccc2O)cc1 [Compound 3c, (E)-1-(5-chloro-2-hydroxyphenyl)-3-(4-(dimethylamino)phenyl)prop-2-en-1-one]
Formation of IEI favoured by binding of the first molecule (rCPB2.8 [4]): 182 fold | Formation of IESI favoured by binding of the first molecule (rCPB2.8 [4]): 87 fold | Mechanism (rCPB2.8 [4]): NCPC | αKi (rCPB2.8 [4]): 147 ± 28 µM | Ki (rCPB2.8 [4]; Ki): 100 ± 18 µM | α (rCPB2.8 [4]): 1.47 | β (rCPB2.8 [4]): 0.0055 | γ (rCPB2.8 [4]): 0.0115 | Ki (rCPB2.8 [4]; βKi): 0.55 ± 0.1 µM | Ki (rCPB2.8 [4]; γKi): 1.15 ± 0.21 µM | NIH/3T3 Cells GL50 (NIH/3T3 fibroblasts): >828.44 µM | IC50 [1, 7]: > 10 µg/mL | Formation of IEI favoured by binding of the first molecule (rCPB3): sevenfold | Formation of IESI favoured by binding of the first molecule (rCPB3): 20 fold | Mechanism (rCPB3): NCPC | αKi (rCPB3): 141 ± 27 µM | α (rCPB3): 9.15 | β (rCPB3; [8]): 0.14 | γ (rCPB3; [9]): 0.05 | IC50 (rCPB2.8 [2]): 3.97 ± 0.08 µM | Formation of IEI favoured by binding of the first molecule (rH84Y [5]): 20 fold | Formation of IESI favoured by binding of the first molecule (rH84Y [5]): 28 fold | Mechanism (rH84Y [5]): NCPC | αKi (rH84Y [5]): 127 ± 20 µM | α (rH84Y [5]): 4.31 | β (rH84Y [5]; [8]): 0.049 | γ (rH84Y [5]; [9]): 0.036

CN(C)c1ccc(/C=C/C(=O)c2cc(F)ccc2O)cc1 [Compound 4c, (E)-3-(4-(dimethylamino)phenyl)-1-(5-fluoro-2-hydroxyphenyl)prop-2-en-1-one]
Times more potent in inhibiting rH84Y compared to rCPB3 (rH84Y [6]): 8.74 times | NIH/3T3 Cells GL50 (NIH/3T3 fibroblasts): >876.24 µM | Cytotoxicity against mammal cells (in words) (NIH/3T3 fibroblasts; NIH/3T3 cells): noncytotoxic | SI (selectivity index) [1]: >1752.48 | IC50 [1, 7]: 0.5 µM | IC50 (rCPB2.8 [2]): 9.88 ± 0.73 µM

O=c1c(O)c(-c2ccc3c(c2)OCO3)oc2ccccc12 [Compound f12b, 2-(benzo[d][1, 3]dioxol-5-yl)-3-hydroxy-4H-chromen-4-one]
Mechanism (rCPB2.8 [4]): NCPC | αKi (rCPB2.8 [4]): 24.9 ± 2.3 µM | Ki (rCPB2.8 [4]; Ki): 39.2 ± 4.1 µM | α (rCPB2.8 [4]): 0.634 | β (rCPB2.8 [4]): 0.029 | γ (rCPB2.8 [4]): 0.013 | Ki (rCPB2.8 [4]; βKi): 1.17 ± 0.12 µM | Ki (rCPB2.8 [4]; γKi): 0.51 ± 0.09 µM | NIH/3T3 Cells GL50 (NIH/3T3 fibroblasts): >885.74 µM | IC50 [1, 7]: > 10 µg/mL | Mechanism (rCPB3): SLNC | αKi (rCPB3): 13.7 ± 1.2 µM | α (rCPB3): 1 | IC50 (rCPB2.8 [2]): 5.23 ± 0.32 µM | Mechanism (rH84Y [5]): SLNC | αKi (rH84Y [5]): 6.06 ± 0.24 µM | α (rH84Y [5]): 1 | inhibition at 1 µM (rCPB2.8 [3]): 69.2% | inhibition at 5 µM (rCPB2.8 [3]): 77.5%

COc1ccc(-c2oc3ccccc3c(=O)c2O)cc1 [f12a, 3-hydroxy-2-(4-methoxyphenyl)-4H-chromen-4-one]
Formation of IESI favoured by binding of the first molecule (rCPB2.8 [4]): 50 fold | Mechanism (rCPB2.8 [4]): NCPC | αKi (rCPB2.8 [4]): 10.7 ± 1.1 µM | Ki (rCPB2.8 [4]; Ki): 12.4 ± 1.4 µM | α (rCPB2.8 [4]): 1 | β (rCPB2.8 [4]): 0.29 | γ (rCPB2.8 [4]): 0.02 | Ki (rCPB2.8 [4]; βKi): 3.65 ± 0.39 µM | Ki (rCPB2.8 [4]; γKi): 0.25 ± 0.03 µM | NIH/3T3 Cells GL50 (NIH/3T3 fibroblasts): >931.93 µM | IC50 [1, 7]: > 10 µg/mL | Mechanism (rCPB3): SLNC | αKi (rCPB3): 7.50 ± 0.66 µM | α (rCPB3): 1 | IC50 (rCPB2.8 [2]): 4.72 ± 0.38 µM | Mechanism (rH84Y [5]): SLNC | αKi (rH84Y [5]): 11.2 ± 0.5 µM | α (rH84Y [5]): 1
